Reference: publication PMC6133092, “Synthesis of 2-alkylthio-N-(quinazolin-2-yl)benzenesulfonamide derivatives: anticancer activity, QSAR studies, and metabolic stability” (Monatshefte Fur Chemie, 2018)

How the values were obtained:
[1] = system: MCF-7 (breast cancer); experiment: MTT cell viability assay, MCF-7; type: cell-based, human; conditions: mean ± SD
Procedure: All of the newly synthesized compounds 9–24 were evaluated for their effects on cell viability in three human cancer cell lines: HCT-116 (colon cancer), HeLa (cervical cancer), and MCF-7 (breast cancer). Cisplatin was used as reference drug. […] Considering the activity of derivatives 9–12, 15, 17, 18, and 21–24, it can be noticed that phenyl group as R^3 bring an increase of cytotoxicity in comparison with methyl in place of R^3. However, this impact seems to be the most important for compounds with the bulky group in R^1 and generally, it is less for a set of derivatives with methyl group substituted in R^1 (9–12).
(§1) All chemicals, if not stated otherwise, were obtained from Sigma-Aldrich (St. Louis, MO, USA). The MCF-7 and HeLa cell lines were purchased from Cell Lines Services (Eppelheim, Germany), the HCT-116 cell line was purchased from ATCC (ATCC-No: CCL-247). Cells were cultured in Dulbecco’s modified Eagle’s medium (DMEM) supplemented with 10% fetal bovine serum, 2 mM glutamine, 100 units/cm^3 penicillin, and 100 μg/cm^3 streptomycin. Cultures were maintained in a humidified atmosphere with 5% CO2 at 37 °C in an incubator (Heraceus, HeraCell).
(§2) Cell viability was determined using the MTT (3-(4,5-dimethylthiazol-2-yl)-2,5-diphenyltetrazolium bromide) assay. Cells were seeded in 96-well plates at a density of 5 × 10^3 cells/well and treated for 72 h with the examined compounds in the concentration range 1–100 μM (1, 10, 25, 50, and 100 μM). Following treatment, MTT (0.5 mg/cm^3) was added to the medium and cells were further incubated for 2 h at 37 °C. Cells were lysed with DMSO and the absorbance of the formazan solution was measured at 550 nm with a plate reader (Victor, 1420 multilabel counter). […] The experiment was performed in triplicate. Values are expressed as the mean ± SD of at least three independent experiments.

[2] = system: HCT-116 (colon cancer); experiment: MTT cell viability assay, HCT-116; type: cell-based; conditions: Homo sapiens, 72 h, mean ± SD
Procedure: as §1, §2

[3] = system: UO-31; experiment: NCI-60 single dose screen, UO-31; type: cell-based; conditions: Homo sapiens, Renal cancer, single concentration 10^−5 M, read-out: IGP (inhibition growth percent) UO-31
Procedure: (§3) Aside from above, compounds 9–14 and 17–24 were also submitted to National Cancer Institute and evaluated for the cytotoxic effects toward 60 cell lines at a single dose of 10 μM (Table 2). […] As it was summarized in Table 2, leukemia RPMI-8226 and NSCLC A549/ATCC were most sensitive to compounds 18, 22, and 24. These derivatives in 10 μM concentration inhibited the growth of approximately 50% cells belonging to the above mention cell lines.
(§4) Cytotoxicity evaluation of compounds 9–14 and 17–24 was performed at the National Cancer Institute according to NCI-60 DTP human tumor cell line screen procedure.

[4] = system: HOP-92; experiment: NCI-60 single dose screen, HOP-92; type: cell-based; conditions: Homo sapiens, NSCLC, single concentration 10^−5 M, read-out: IGP (inhibition growth percent) HOP-92
Procedure: as §3, §4

[5] = system: MOLT-4; experiment: NCI-60 single dose screen, MOLT-4; type: cell-based; conditions: Homo sapiens, Leukemia, single concentration 10^−5 M, read-out: IGP (inhibition growth percent) MOLT-4
Procedure: as §3, §4

[6] = Metabolic stability in human liver microsomes with NADPH; type: in vitro ADME; conditions: pooled human liver microsomes, pH 7.4, human liver microsomes 0.5 mg/cm^3, NADPH 1 mM, 10 μM compound, 37 °C, read-out: in vitro metabolic half-life t1/2
Procedure: Selected derivatives were submitted to metabolic stability study to assess their ability to remain unchanged in the presence of human metabolic enzymes. Human liver microsomes were used as they are a rich source of all common CYP isoenzymes. In vitro incubations were performed in the presence of NADPH as a cofactor and the disappearance of a derivative was followed using LC–MS technique. The in vitro metabolic half-life values are gathered in Fig. 3.
Stock solutions of studied compounds were prepared at concentration of 10 mM in DMSO. […] Incubation mixture contained 10 μM of a studied derivative, 1 mM of NADPH (Sigma-Aldrich) and 0.5 mg/cm^3 of pooled human liver microsomes (HLM, Sigma-Aldrich) in potassium phosphate buffer (0.1 M, pH 7.4). Incubation was carried out in thermostat at 37 °C and started by addition of studied compound. 50 mm^3 samples were taken at starting point and after 5, 15, 30, 45, and 60 min. Enzymatic reaction was terminated by the addition of the equal volume of ice-cold acetonitrile. Incubations were performed in triplicates, the average t1/2 and standard deviation was calculated. Control incubations were performed without NADPH to assess chemical instability. After collection, samples were immediately centrifuged (10 min, 10,000 rpm) and resulted supernatant was directly analyzed or kept in − 80 °C until LC–MS analysis. Natural logarithm of a compound over IS peak area ratio was plotted versus incubation time. Metabolic half-time (t1/2) was calculated from the slope of the linear regression.
LC–MS analysis was performed on an Agilent 1260 system coupled to SingleQuad 6120 mass spectrometer (Agilent Technologies, Santa Clara, CA, USA). Poroshell EC-C18 (2.1 mm × 150 mm, 2.7 μm, Agilent Technologies, Santa Clara, CA, USA) was used in reversed-phase mode with gradient elution starting with 5% of phase A (10 mM ammonium formate in water) and 95% of phase B (10 mM ammonium formate in acetonitrile–water mixture, 95:5 v/v). […] Total analysis time was 15 min at 40 °C, flow rate was 1 cm^3/min and the injection volume was 5 mm^3. The mass spectrometer was equipped with electrospray ion source and operated in positive ionization. Mass analyzer was set individually to each compound to detect [M+H]^+ protonated molecule. MSD parameters of the ESI source were as follows: nebulizer pressure 35 psig (N2), drying gas […] (N2), drying gas temperature 300 °C, capillary voltage 3 kV, fragmentor voltage 150 V.

[7] = system: UACC-62; experiment: NCI-60 single dose screen, UACC-62; type: cell-based; conditions: Homo sapiens, Melanoma, single concentration 10^−5 M, read-out: IGP (inhibition growth percent) UACC-62
Procedure: as §3, §4

[8] = system: EKVX; experiment: NCI-60 single dose screen, EKVX; type: cell-based; conditions: Homo sapiens, NSCLC, single concentration 10^−5 M, read-out: IGP (inhibition growth percent) EKVX
Procedure: as §3, §4

[9] = system: HeLa (cervical cancer); experiment: MTT cell viability assay, HeLa; type: cell-based; conditions: Homo sapiens
Procedure: as §1, §2

[10] = system: NCI-H522; experiment: NCI-60 single dose screen, NCI-H522; type: cell-based; conditions: Homo sapiens, NSCLC, single concentration 10^−5 M, read-out: IGP (inhibition growth percent) NCI-H522
Procedure: as §3, §4

[11] = system: SR; experiment: NCI-60 single dose screen, SR; type: cell-based; conditions: Homo sapiens, Leukemia, single concentration 10^−5 M, read-out: IGP (inhibition growth percent) SR
Procedure: as §3, §4

[12] = system: MCF-7; experiment: NCI-60 single dose screen, MCF-7; type: cell-based; conditions: Homo sapiens, MCF7; Breast cancer; single concentration 10^−5 M; read-out: IGP (inhibition growth percent) MCF-7
Procedure: as §3, §4

[13] = system: RPMI-8226; experiment: NCI-60 single dose screen, RPMI-8226; type: cell-based; conditions: Homo sapiens, RPMI-8226, Leukemia; single concentration 10^−5 M; read-out: IGP (inhibition growth percent) RPMI-8226
Procedure: as §3, §4

[14] = system: PC-3; experiment: NCI-60 single dose screen, PC-3; type: cell-based; conditions: Homo sapiens, Prostate cancer, single concentration 10^−5 M, read-out: IGP (inhibition growth percent) PC-3
Procedure: as §3, §4

[15] = system: HCT-116; experiment: NCI-60 single dose screen, HCT-116; type: cell-based; conditions: Homo sapiens, Colon cancer, single concentration 10^−5 M, read-out: IGP (inhibition growth percent) HCT-116
Procedure: as §3, §4

[16] = system: A549/ATCC; experiment: NCI-60 single dose screen, A549/ATCC; type: cell-based; conditions: Homo sapiens, A549, NSCLC; single concentration 10^−5 M; read-out: IGP (inhibition growth percent) A549/ATCC
Procedure: as §3, §4

[17] = Table 4, repeats Table 1 values without SD and unit

| Structure (SMILES) | IC50 [2] [µM] | IC50 ([1]; Homo sapiens, MCF7, 72 h) [µM] | half-life at 10 μM [6] [min] | IC50 ([9]; MTT, 72 h, mean ± SD) [µM] | IC50 [9, 17] [µM] | IC50 ([1]; 72 h) [µM] | inhibition at 10 µM [3] [%] | inhibition at 10 µM [4] [%] | inhibition at 10 µM [5] [%] | inhibition at 10 µM [7] [%] | inhibition at 10 µM [8] [%] | inhibition at 10 µM [10] [%] | inhibition at 10 µM [11] [%] | inhibition at 10 µM [12] [%] | inhibition at 10 µM [13] [%] | inhibition at 10 µM [14] [%] | inhibition at 10 µM [15] [%] | inhibition at 10 µM [16] [%] |
| --- | --- | --- | --- | --- | --- | --- | --- | --- | --- | --- | --- | --- | --- | --- | --- | --- | --- | --- |
| N.N.[Cl][Pt][Cl] [Cisplatin, reference compound] | – | – | – | – | – | 3 ± 0.1 | – | – | – | – | – | – | – | – | – | – | – | – |
| Cc1cc(S(=O)(=O)Nc2nc(C)c3ccccc3n2)c(SCc2ccccc2)cc1Cl [Compound 9, 2-Benzylthio-4-chloro-5-methyl-N-(4-methylquinazolin-2-yl)benzenesulfonamide] | 61 ± 1 | 100 ± 2 | 51.9 | 75 ± 5 | 75 | – | 27 | 3 | 12 | 29 | 3 | 9 | 6 | 2 | 15 | 2 | – | – |
| Cc1cc(S(=O)(=O)Nc2nc(C)c3ccccc3n2)c(SCc2cc3c(cc2Cl)OCO3)cc1Cl [Compound 11, 4-Chloro-2-(6-chlorobenzo[1,3]dioxol-5-ylmethylthio)-5-methyl-N-(4-methylquinazolin-2-yl)benzenesulfonamide] | 46 ± 1 | 57 ± 2 | 56.8 | 58 ± 2 | 58 | – | 15 | – | 20 | 23 | 17 | 19 | 3 | 4 | 32 | 23 | 30 | 34 |
| Cc1cc(S(=O)(=O)Nc2nc(-c3ccccc3)c3ccccc3n2)c(SCC(N)=O)cc1Cl [Compound 14, 2-Carbamoylmethylthio-4-chloro-5-methyl-N-(4-phenylquinazolin-2-yl)benzenesulfonamide] | 85 ± 3 | 155 ± 9 | 90.8 | 120 ± 1 | – | – | 2 | – | 9 | – | – | 4 | 17 | – | – | – | – | – |

The next lines start with results.

| IC50 [2] [µM] | IC50 ([1]; Homo sapiens, MCF7, 72 h) [µM] | half-life at 10 μM [6] [min] | IC50 ([9]; MTT, 72 h, mean ± SD) [µM] | IC50 [9, 17] [µM] | Structure (SMILES) | IC50 ([1]; 72 h) [µM] | inhibition at 10 µM [3] [%] | inhibition at 10 µM [4] [%] | inhibition at 10 µM [5] [%] | inhibition at 10 µM [7] [%] | inhibition at 10 µM [8] [%] | inhibition at 10 µM [10] [%] | inhibition at 10 µM [11] [%] | inhibition at 10 µM [12] [%] | inhibition at 10 µM [13] [%] | inhibition at 10 µM [14] [%] | inhibition at 10 µM [15] [%] | inhibition at 10 µM [16] [%] |
| --- | --- | --- | --- | --- | --- | --- | --- | --- | --- | --- | --- | --- | --- | --- | --- | --- | --- | --- |
| 84 ± 3 | 175 ± 10 | 16 | 72 ± 1 | 72 | Cc1nc(NS(=O)(=O)c2cc(C(=O)Nc3ccccc3)c(Cl)cc2SCc2ccccc2)nc2ccccc12 [Compound 17, 2-Benzylthio-4-chloro-5-phenylcarbamoyl-N-(4-methylquinazolin-2-yl)benzenesulfonamide] | – | 24 | 20 | 9 | 14 | 18 | 12 | 12 | – | 22 | 3 | 5 | 11 |
| 100 ± 4 | 105 ± 3 | – | 117 ± 5 | 117 | Cc1nc(NS(=O)(=O)c2cc(C(=O)Nc3ccc(Cl)cc3)c(Cl)cc2SCC(N)=O)nc2ccccc12 [Compound 19, 2-Carbamoylmethylthio-4-chloro-5-(4-chlorophenylcarbamoyl)-N-(4-methylquinazolin-2-yl)benzenesulfonamide] | – | 7 | 8 | 3 | – | – | 8 | 4 | 4 | 3 | 4 | 4 | – |
| 140 ± 4 | 92 ± 1 | 49.7 | 110 ± 7 | 110 | NC(=O)CSc1cc(Cl)c(C(=O)Nc2ccc(Cl)cc2)cc1S(=O)(=O)Nc1nc(-c2ccccc2)c2ccccc2n1 [Compound 20, 2-Carbamoylmethylthio-4-chloro-5-(4-chlorophenylcarbamoyl)-N-(4-phenylquinazolin-2-yl)benzenesulfonamide] | – | 3 | 4 | 5 | 8 | – | 11 | 6 | 3 | 10 | 2 | – | – |
| 70 ± 1 | 97 ± 2 | 35 | 75 ± 2 | 75 | Cc1ccc(NC(=O)c2cc(S(=O)(=O)Nc3nc(C)c4ccccc4n3)c(SCc3ccccc3)cc2Cl)cc1 [Compound 23, 2-Benzylthio-4-chloro-5-(4-methylphenylcarbamoyl)-N-(4-methylquinazolin-2-yl)benzenesulfonamide] | – | 21 | – | 5 | – | 15 | – | 8 | 8 | 17 | 18 | – | 6 |
